Test results from patent publication US5972901A, “Serpin enzyme complex receptor--mediated gene transfer” (Case Western Reserve University, priority 1996, dated 1999).

Tests used:
SEC receptor [1] = assay: Binding of fluorescein labeled peptide to hepatoma cells (fluorescent cells); type: cell-based, human
Method: HuH7, HepG2 (high) and HepG2 (low) cells were plated in six well plates and transfected as described above. Fluorescein labeling was carried out with fluorescein isothiocyanate, as described previously [Mann and Fish (1972) Methods of Enzymology 26:28-42]. Briefly, the C1315 peptide (145 μg) was incubated with 1 mg of fluorescein isothiocyanate for 1 hr at room temperature. Following incubation, 10 mg/ml glycine was added to destroy excess reagent, the pH was adjusted to 6.0 by the addition of 1N HCl and the labeled peptide was then purified on a Sephadex G10 column (Bio-Rad).
Two days following transfection, cells were washed with Ca^2+ /Mg^2+ PBS, incubated with 100 nM fluorescein labeled C1315 peptide and diluted in binding buffer (DMEM containing 50 mM Hepes, 0.1 mg/ml cytochrome c, 0.01% Tween 80, 2 mg/ml bovine serum albumin) at 4° C. Individual cells were imaged on a Zeiss axiovert 35 microscope at an excitation wavelength of 493.5 nm and a measurement wavelength of 530 nm. Digital images were captured by a cooled CCD camera model CH250 for 25 seconds (Photometrics, Ltd., Tucson, Ariz.) and quantified by a Nu 2000 camera controller board (Photometrics) with a Macintosh Quadra 900 configuration. Data was processed with Oncor image software (Oncor Imaging, Rockville, Md.).
Both HuH7 and HepG2 cell lines were transfected with the pCMV lac Z II plasmid coding for the β-galactosidase protein as a complex with the C1315 peptide carrier or using Lipofectin®, as described above; three days after transfection, the cells were harvested and β-galactosidaseactivity was determined. Cells staining blue represent cells expressing β-galactosidase; fluorescent cells represent cells which bound the fluoresceinated C105Y peptide. Cells which were counted as blue or fluorescent were intensely stained. The average % values represent the number of cells which were blue or fluorescent per 100 randomly selected cells. The results represent 6 independent experiments conducted. […]

hepatoma cells = assay: Cell death / viability during transfection of hepatoma cells; settings: 10 fold molar excess
SEC receptor [2] = assay: 125I-C105Y cell surface SEC receptor binding, Scatchard analysis; design: species or system human; settings: for Kd: 4° C.
Method: Peptide C105Y was radio-iodinated by a modification of the chloramine T method [Hunter and Greenwood (1962) Nature 194:49] as follows. Briefly, approximately 50 μg of the C105Y peptide in 20 μl PBS was mixed with 20 μl chloramine T (120 mg/10 ml) and 1 mCi ^125 I (DuPont-New England Nuclear, Boston, Mass.). The reaction mixture was incubated for 30 seconds at room temperature and then 50 μl of sodium metabisulfite (36 mg/10 ml) was added. The labeled C105Y peptide was purified on a Sephadex G10 column (Bio-Rad) which had been blocked by application of 3 mg/ml BSA in PBS prior to the addition of the iodinated peptide. The specific radioactivity of ^125 I peptide C105Y ranged between 3,500 and 11,700 dpm/ng.
HuH7 cells and two populations of HepG2 cells were studied. Cells were plated in 24 well tissue culture plates, allowed to become confluent, then thoroughly washed with phosphate-buffered saline containing 1 mM CaCl2 and 2.5 mM MgCl2 (Ca^2+ /Mg^2+ PBS) and incubated at 4° C. for 2 h with ^125 I-labeled ligand (e.g., C105Y) at concentrations of 12.5 to 400 nM in the absence or presence of 200 fold excess unlabeled ligand and diluted in binding medium (DMEM containing 50 mM HEPES, 0.1 mg/ml cytochrome c, 0.01% Tween 80, 2 mg/ml bovine serum albumin). The cells were then rinsed in Ca^2+ Mg^2+ PBS, homogenized in 1 N NaOH, and cell-associated radioactivity determined. Non-specific binding was determined by incubating cells with a 200 fold molar excess of cold ligand. Specific binding was defined as the difference between total and non-specific binding. Binding parameters were determined by Scatchard analysis. Binding assays were performed on all three cell lines [HuH7, HepG2 (high), and HepG2 (low)] simultaneously with the same batch of iodinated C105Y peptide so that the proper comparisons could be made.
In FIG. 22, the specific binding (expressed as cpm/one million cells) is plotted against the concentration of iodinated C105Y ppeptide (nM). Traces are shown for the specific binding of ^125 I-C105Y to HuH7 cells (.smallcircle.), HepG2 (high) cells (.quadrature.) and HepG2 (low) cells (.diamond.). Specific binding was determined by subtracting […].

## CC[C@H](C)C(=O)O[C@H]1C[C@@H](C)C=C2C=C[C@H](C)[C@H](CC[C@@H]3C[C@@H](O)CC(=O)O3)[C@H]21 [lovastatin]
Total serum cholesterol; rabbit #774, gene transfer followed by 10 mg per day for 10 weeks
  cholesterol concentration relative to that prior to the first gene transfer: 40%
Total serum cholesterol; rabbit #774 after gene transfer, 10 mg per day orally for 10 weeks
  further reduction in the levels of cholesterol: 20%

## CFLEAIPMSIPPEVKFNKPFVFLIIHRD [C1315]
SEC receptor [1]; HepG2(high)
  Average % Fluorescent Cells: 20.4 ± 11.2%
SEC receptor [1]; HepG2(low)
  Average % Fluorescent Cells: 1.8 ± 1.4%
SEC receptor [1]; HuH7
  Average % Fluorescent Cells: 14.3 ± 4.0%
Hepatoma cells
  effect of excess free peptide on cell viability: no effect on cell viability

## CSIPPEVKFNKPFVYLI [C105Y]
SEC receptor [2]
  binding by HuH7 cells relative to HepG2 (high), more: 1.5 fold
  specific binding by HepG2 (low) cells relative to HepG2 (high) cells, less: 7.5 fold
  specific binding by HepG2 (low) cells relative to HuH7 cells, less: 10 fold
SEC receptor [2]; HepG2 (high) cells, Scatchard analysis
  Kd: 50 nM
SEC receptor [2]; HepG2 (low) cells
  Kd: ~22.5 nM
SEC receptor [2]; HuH7 cells
  Kd: ~70 nM
